Laboratory results from patent US20060079453A1, “Hla binding peptides and their uses” (priority 2002, published 2006).
No end group written: not given here.

How the values were obtained:
Test in all cases: biochemical
Assay type in all cases: binding
[1] = target: HLA-DR DRB3*0101 (DR52) (Homo sapiens, UniProt P01903+P79483)
[2] = target: HLA-DR DRB1*0101 (DR1) (Homo sapiens, UniProt P01903+P01911, A100R/D57E/F55L/F60I/F76Y/I96L/L162R/M171V/P40L/Q125E/R42F/V115G/Y59C); details: DRB1 *0101
[3] = target: HLA-DR DRB1*0701 (DR7) (Homo sapiens, UniProt P01903+P01911, A100R/A102G/A103Q/D57E/D86V/E43K/F76Y/K127E/L162R/M171V/P40G/Q125H/Q99D/R33Q/R42Y/R54Q/S133A/S66F/T210M/V115G/Y107V/Y59L/Y89S); details: DRB1 *0701
[4] = target: HLA-DR DRB1*1501 (DR15) (Homo sapiens, UniProt P01903+P01911); details: DRBI *1501
[5] = target: HLA-DR DRB4*0101 (DR53) (Homo sapiens, UniProt P01903+P13762, G164S); details: DRB4 *0101
[6] = target: HLA-DR DRB1*0901 (DR9) (Homo sapiens, UniProt P01903+P01911, A100R/A103E/D57H/D86V/F55Y/F60I/F76Y/I96F/K127E/L162R/M171V/P40D/Q125H/Q99R/R33Q/R42F/S133A/S66N/T210M/V115G/W38K/Y107V/Y59G/Y89S); details: DRB1 *0901
[7] = target: HLA-DR DRB1*0301 (DR3) (Homo sapiens, UniProt P01903+P01911, A100K/A102G/A103R/A169T/F55Y/I96L/K41T/L162R/M171V/P40S/Q125H/Q178H/Q39Y/R42S/S66N/T106N/T262R/W38E/Y61H)
Sequence of HLA-DR DRB1*0301 (DR3) (P01903 26-254 limits assumed, other chains not shown): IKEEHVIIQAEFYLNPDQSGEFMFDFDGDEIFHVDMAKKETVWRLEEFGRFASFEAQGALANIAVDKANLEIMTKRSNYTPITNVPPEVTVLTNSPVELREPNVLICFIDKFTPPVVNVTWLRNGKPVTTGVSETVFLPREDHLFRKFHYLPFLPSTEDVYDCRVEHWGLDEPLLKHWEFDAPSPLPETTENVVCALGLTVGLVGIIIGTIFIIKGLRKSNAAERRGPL

[8] = target: HLA-DR DRB1*1101 (DR11) (Homo sapiens, UniProt P01903+P01911, A100R/A169T/A87E/I96F/K41T/L162R/M171V/P40S/Q125H/Q178H/Q39Y/Q99D/R42S/S66Y/T262R/V115G/W38E); details: DRB1 *1101
Sequence of HLA-DR DRB1*1101 (DR11) (P01903 26-254 limits assumed, other chains not shown): as above

[9] = target: HLA-DR DRB1*0802 (DR8) (Homo sapiens, UniProt P01903+P01911, A100R/A103L/A169T/F76Y/H45Y/I96F/K41T/L162R/M171V/P40S/Q125H/Q178H/Q39Y/Q99D/R218S/R42G/S66Y/V115G/W38E)
[10] = target: HLA-DR DRB1*1302 (DR13) (Homo sapiens, UniProt P01903+P01911, A100E/A169T/K41T/L162R/M171V/P40S/Q125H/Q178H/Q39Y/Q99D/R42S/S66N/T262R/V115G/W38E/Y61H); details: DRBI *1302
Sequence of HLA-DR DRB1*1302 (DR13) (P01903 26-254 limits assumed, other chains not shown): as above

[11] = target: HLA-DR DRB1*0401 (DR4) (Homo sapiens, UniProt P01903+P01911, A100K/A169T/F76Y/I96L/K127E/L162R/M171V/N62H/P40V/Q125Y/R42H/S133A/S149N/S66Y/V115G/V209L/W38E); details: DRB1 *0401
[12] = target: HLA-DR DRB5*0101 (DR51) (Homo sapiens, UniProt P01903+Q30154); details: DRB5 *0101

| Compound | IC50 [1] [nM] | IC50 [2] [nM] | IC50 [3] [nM] | IC50 [4] [nM] | IC50 [5] [nM] | IC50 [6] [nM] | IC50 [7] [nM] | IC50 [8] [nM] | IC50 [9] [nM] | IC50 [10] [nM] | IC50 [11] [nM] | IC50 [12] [nM] |
| --- | --- | --- | --- | --- | --- | --- | --- | --- | --- | --- | --- | --- |
| CC(C)C[C@H](NC(=O)[C@H](CCC(N)=O)NC(=O)[C@H](CC(=O)O)NC(=O)[C@H](CCC(=O)O)NC(=O)[C@H](CO)NC(=O)[C@H](CC(C)C)NC(=O)[C@@H]1CCCN1C(=O)[C@@H](NC(=O)[C@@H](N)[C@@H](C)O)C(C)C)C(=O)N[C@@H](CC(C)C)C(=O)N[C@@H](Cc1ccc(O)cc1)C(=O)N[C@@H](CC(C)C)C(=O)N1CCC[C@H]1C(=O)N[C@@H](Cc1ccccc1)C(=O)N[C@@H](CCCNC(=N)N)C(=O)O | 4320 | 4010 | 11300 | > 2370 | 872 | 37400 | 332 | 26500 | 42200 | 5300 | – | – |
| CSCC[C@H](NC(=O)[C@H](CC(C)C)NC(=O)[C@H](CC(=O)O)NC(=O)[C@@H](N)Cc1c[nH]cn1)C(=O)N[C@@H](CC(C)C)C(=O)N[C@@H](CC(C)C)C(=O)N[C@@H](CCCNC(=N)N)C(=O)N[C@@H](CC(C)C)C(=O)N[C@@H](CO)C(=O)N[C@@H](CCC(=O)O)C(=O)N1CCC[C@H]1C(=O)N[C@@H](C)C(=O)N[C@@H](CCC(=O)O)C(=O)N[C@@H](CC(C)C)C(=O)N[C@H](C(=O)O)[C@@H](C)O | 5310 | 62 | 152 | 662 | 45 | 22 | 2870 | 2140 | 3910 | 2.3 | 6190 | 10500 |
| NGVLQGITSWGSEPC | 8040 | 945 | 485 | 258 | 4490 | 819 | 24900 | 9720 | 5870 | 775 | 560 | – |
| EVFFQRLGIASGRAR | > 15000 | 28 | 5310 | 4560 | 51 | 2980 | > 75000 | 31 | 6.3 | 17500 | – | 7.9 |
| CC[C@H](C)[C@H](NC(=O)[C@H](CCCCN)NC(=O)[C@H](CCSC)NC(=O)[C@H](CC(=O)O)NC(=O)[C@H](CCCNC(=N)N)NC(=O)[C@H](CCC(=O)O)NC(=O)[C@H](CC(C)C)NC(=O)[C@H](CCCCN)NC(=O)[C@H](Cc1ccccc1)NC(=O)[C@@H](N)Cc1ccccc1)C(=O)N[C@@H](CC(N)=O)C(=O)N[C@@H](CS)C(=O)N[C@@H](CO)C(=O)NCC(=O)N[C@@H](CCCCN)C(=O)O | 4920 | 4420 | > 23100 | > 3490 | 98 | > 52300 | 121 | 9690 | 8110 | 382 | 483 | 3800 |
| CC[C@H](C)[C@H](N)C(=O)N[C@@H](CCCCN)C(=O)N[C@@H](CCCCN)C(=O)N[C@@H](Cc1ccccc1)C(=O)N[C@@H](CC(C)C)C(=O)N[C@@H](Cc1ccc(O)cc1)C(=O)N[C@@H](CC(N)=O)C(=O)N[C@@H](Cc1ccccc1)C(=O)N[C@H](C(=O)N[C@@H](CCC(N)=O)C(=O)N[C@H](C(=O)N1CCC[C@H]1C(=O)N[C@@H](Cc1c[nH]cn1)C(=O)N[C@@H](CC(C)C)C(=O)N[C@@H](C)C(=O)O)[C@@H](C)CC)[C@@H](C)O | 477 | 449 | 29 | 305 | 96 | 160 | 8080 | 137 | 512 | 27 | 43 | – |
| CC(C)C[C@H](NC(=O)[C@H](CO)NC(=O)[C@H](CC(C)C)NC(=O)[C@H](CO)NC(=O)[C@H](C)NC(=O)[C@H](C)NC(=O)[C@H](CCCNC(=N)N)NC(=O)[C@H](C)NC(=O)[C@H](CC(C)C)NC(=O)[C@H](CC(C)C)NC(=O)[C@H](CC(C)C)NC(=O)[C@@H]1CCCN1C(=O)[C@H](C)N)C(=O)NCC(=O)N[C@@H](Cc1ccccc1)C(=O)O | 13400 | 8.4 | 59 | 91 | 59 | 124 | 56300 | 322 | 76 | 12 | – | – |
| YDPLYCESVHNFTLP | > 8830 | 1600 | 838 | 2140 | 6900 | 643 | 16600 | 30200 | 30900 | > 35000 | – | 28800 |
| GVILYSDPADYFAPG | 8.8 | 1570 | 7850 | 965 | 64 | 2470 | 17 | > 18900 | 106000 | 39 | 7510 | – |
| NSRLLQERGVAYINA | 3370 | 614 | 8000 | 1230 | 699 | 2620 | 318 | 12800 | 3220 | 327 | – | 3470 |
| CC[C@H](C)[C@H](NC(=O)[C@@H]1CCCN1C(=O)[C@H](CC(N)=O)NC(=O)[C@@H](N)Cc1c[nH]c2ccccc12)C(=O)N[C@@H](CC(C)C)C(=O)N[C@@H](CC(C)C)C(=O)N[C@@H](Cc1c[nH]c2ccccc12)C(=O)N[C@@H](CCC(N)=O)C(=O)N1CCC[C@H]1C(=O)N[C@H](C(=O)N1CCC[C@H]1C(=O)N[C@H](C(=O)N[C@@H](Cc1c[nH]cn1)C(=O)N[C@H](C(=O)N[C@H](C(=O)O)C(C)C)[C@@H](C)O)C(C)C)[C@@H](C)CC | > 8830 | 208 | – | 14 | 81 | 607 | > 81800 | 19600 | 115000 | 2260 | 695 | ≥ 100000 |
| CSCC[C@H](NC(=O)[C@H](CC(C)C)NC(=O)[C@@H]1CCCN1C(=O)[C@@H](NC(=O)[C@@H](N)CS)[C@@H](C)O)C(=O)N[C@@H](Cc1ccc(O)cc1)C(=O)N[C@@H](CO)C(=O)N[C@@H](CC(C)C)C(=O)N[C@H](C(=O)N[C@@H](Cc1c[nH]cn1)C(=O)N[C@@H](CC(N)=O)C(=O)N[C@@H](CC(C)C)C(=O)N[C@H](C(=O)N[C@@H](CCCCN)C(=O)N[C@@H](CCC(=O)O)C(=O)O)[C@@H](C)O)C(C)C | 18300 | 93 | 140 | 426 | 58 | 249 | 19400 | 590 | 223 | 260 | – | 36 |
| CC(C)C[C@H](NC(=O)[C@H](CO)NC(=O)[C@H](CC(C)C)NC(=O)[C@H](CO)NC(=O)[C@H](C)NC(=O)[C@H](C)NC(=O)[C@H](CCCNC(=N)N)NC(=O)[C@H](C)NC(=O)[C@H](CC(C)C)NC(=O)[C@H](CC(C)C)NC(=O)[C@H](CC(C)C)NC(=O)[C@@H]1CCCN1C(=O)[C@H](C)NC(=O)[C@H](C)N)C(=O)NCC(=O)O | 10500 | 6.8 | 160 | 35 | 79 | 64 | 35400 | 100 | 30 | 3.2 | – | 79 |
